Measurements reported in publication PMC9262897, “Low-cost anti-mycobacterial drug discovery using engineered E. coli” (Nature Communications, 2022).

How the values were obtained:
[1] = target: T1, Mtb alanine racemase (Alr) (Mycobacterium tuberculosis, UniProt P9WQA9)
[2] = target: T1, Mtb alanine racemase (Alr); experiment: […]; Michaelis-Menten kinetics; type: biochemical

T1 sequence (P9WQA9 whole entry): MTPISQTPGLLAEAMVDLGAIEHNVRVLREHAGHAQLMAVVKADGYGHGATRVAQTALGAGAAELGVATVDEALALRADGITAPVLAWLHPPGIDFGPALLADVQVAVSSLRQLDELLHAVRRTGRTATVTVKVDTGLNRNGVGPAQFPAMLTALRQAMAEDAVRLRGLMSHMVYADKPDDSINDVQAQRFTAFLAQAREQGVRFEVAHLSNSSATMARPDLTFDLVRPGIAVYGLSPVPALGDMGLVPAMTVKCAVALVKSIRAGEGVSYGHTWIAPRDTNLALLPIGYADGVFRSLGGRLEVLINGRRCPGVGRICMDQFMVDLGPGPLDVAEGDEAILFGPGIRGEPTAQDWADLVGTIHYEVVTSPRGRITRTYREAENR

SMILES	Michaelis-Menten kinetics of purified Alr in the coupled NADH fluorescence assay [1]	IC50 [2] [µM]
C[C@@H](N)C(=O)O [D-alanine]	Varying the concentration of D-alanine yielded conventional Michaelis–Menten kinetics for Alr	–
CCOC(=O)[C@H](CCc1ccccc1)N[C@H]1CCc2ccccc2N(CC(=O)O)C1=O [benazepril]	–	300
